Laboratory results reported in US10890591B2, “Methods and dose packs for monitoring medication adherence” (Synapse Biosciences, LLC, priority 2016, dated 2021).
Like-named read-outs stand apart in the source and are kept apart here.

How the values were obtained:
[1] = clinical
Source text: (§1) All other markers were obtained from commercial sources. Urine and saliva were collected prior to each day's dosing of marker confirming the presence or absence of markers before the experiment started. […] The presence of all 7 markers at day 8 would confirm that all markers were ingested in the previous 7 day one week period.
(§2) Healthy volunteers with no recent exposure to the markers who were not currently taking prescribed medications, OTC medications or vitamins and supplements were chosen. Exposure to the markers more than one month before starting the experiment was allowed and no dietary restrictions were required. Subjects were given a 7 day blister pack with markers sequenced in the order above. Subjects verbally confirmed they understood the urine and saliva collection procedures. Instructions printed on the marker blister pack instructed subjects to collect urine and saliva each morning before they took the daily dose of marker. They were also instructed to take the daily dose of marker close to the same time each day.

[2] = clinical; details: human, in vivo, Urine Results
[3] = human, in vivo
[4] = clinical; details: human, in vivo
Source text: as §1, §2

[5] = Multiple Marker Experiment 2: urine samples, simulated non-adherence (one marker dose skipped per subject), LC-MS/MS; details: for Subject B, Urine Results / Subject C, Urine Results: collected before that day's dose; for Subject B, Urine Results / Subject C, Urine Results / concentration at 8 day: other markers dosed once; for concentration at 8 day: Urine Results, Day 8 sample
[6] = human, in vivo, Average of Urine Samples
[7] = Day 1 sample, collected before that day's dose, Experiment #1, adherent with all markers, each marker dosed once
[8] = Day 2 sample, collected before that day's dose, Experiment #1, adherent with all markers, each marker dosed once
[9] = Day 3 sample, collected before that day's dose, Experiment #1, adherent with all markers, each marker dosed once
[10] = Day 4 sample, collected before that day's dose, Experiment #1, adherent with all markers, each marker dosed once
[11] = Day 5 sample, collected before that day's dose, Experiment #1, adherent with all markers, each marker dosed once
[12] = Day 6 sample, collected before that day's dose, Experiment #1, adherent with all markers, each marker dosed once
[13] = Day 7 sample, collected before that day's dose, Experiment #1, adherent with all markers, each marker dosed once
[14] = Day 8 sample, Experiment #1, adherent with all markers, each marker dosed once

O=C1O[C@H]([C@@H](O)CO)C(O)=C1O [Ascorbic Acid]
Subject C, Urine Results ([1]; human, in vivo, 1 day): 1290 ng/m
Subject D, Urine Results ([1]; human, in vivo, 1 day): 4167 ng/m
Subject C, Urine Results ([1]; human, in vivo, 2 day): 2106 ng/m
Subject D, Urine Results ([1]; human, in vivo, 2 day): 2789 ng/m
Subject C, Urine Results ([1]; human, in vivo, 3 day): 1947 ng/m
Subject D, Urine Results ([1]; human, in vivo, 3 day): 3626 ng/m
Subject C, Urine Results ([1]; human, in vivo, 4 day): 1892 ng/m
Subject D, Urine Results ([1]; human, in vivo, 4 day): 3426 ng/m
Subject C, Urine Results ([1]; human, in vivo, 5 day): 2503 ng/m
Subject D, Urine Results ([1]; human, in vivo, 5 day): 2268 ng/m
Subject C, Urine Results ([1]; human, in vivo, 6 day): 1812 ng/m
Subject D, Urine Results ([1]; human, in vivo, 6 day): 3024 ng/m
Subject C, Urine Results ([1]; human, in vivo, 7 day): 1751 ng/m
Subject D, Urine Results ([1]; human, in vivo, 7 day): 3908 ng/m
Subject C, Urine Results ([1]; human, in vivo, 8 day): 2020 ng/m
Subject D, Urine Results ([1]; human, in vivo, 8 day): 2894 ng/m
concentration at 1 day [1, 6]: 1960 ng/mL
concentration at 2 day [1, 6]: 2100 ng/mL
concentration at 3 day [1, 6]: 2260 ng/mL
concentration at 4 day [1, 6]: 2660 ng/mL
concentration at 5 day [1, 6]: 2030 ng/mL
concentration at 6 day [1, 6]: 1960 ng/mL
concentration at 7 day [1, 6]: 2560 ng/mL
concentration at 8 day [1, 6]: 2100 ng/mL
concentration at 7 day ([1]; human, in vivo, Subject A, Urine Results): 2800 ng/mL
course of urine levels relative to dosing ([1]; in vivo): did not differ significantly from baseline levels
concentration at 7 day ([2]; Subject A): 2920 ng/mL
concentration at 1 day ([2]; Subject C): 1870 ng/mL
concentration at 2 day ([2]; Subject C): 2490 ng/mL
concentration at 3 day ([2]; Subject C): 4540 ng/mL
concentration at 4 day ([2]; Subject C): 2520 ng/mL
concentration at 5 day ([2]; Subject C): 5290 ng/mL
concentration at 6 day ([2]; Subject C): 1040 ng/mL
concentration at 7 day ([2]; Subject C): 1840 ng/mL
concentration at 8 day ([2]; Subject C): 1610 ng/mL
concentration at 3 day ([2]; Subject D): 4900 ng/mL
concentration at 4 day ([2]; Subject D): 4930 ng/mL
concentration at 5 day ([2]; Subject D): 5020 ng/mL
concentration at 6 day ([2]; Subject D): 4400 ng/mL
concentration at 8 day ([2]; Subject D): 4320 ng/mL
course of urine levels relative to dosing [3]: did not differ significantly from baseline levels
concentration at 1 day [4]: 30.7 ng/mL
concentration at 2 day [4]: 33.6 ng/mL
concentration at 3 day [4]: 32.8 ng/mL
concentration at 4 day [4]: 33.3 ng/mL
concentration at 5 day [4]: 23.8 ng/mL
concentration at 6 day [4]: 36.2 ng/mL
concentration at 7 day [4]: 36.8 ng/mL
concentration at 8 day [4]: 27 ng/mL

CN(C)C(=O)C(CCN1CCC(O)(c2ccc(Cl)cc2)CC1)(c1ccccc1)c1ccccc1 [Loperamide]
Subject A, Urine Results [1, 7]: 0 ng/mL
Subject B, Urine Results [1, 7]: 0 ng/mL
Subject C, Urine Results [1, 7]: 0 ng/m
Subject D, Urine Results [1, 7]: 0 ng/m
Subject A, Urine Results [1, 8]: 0 ng/mL
Subject B, Urine Results [1, 8]: 0 ng/mL
Subject C, Urine Results [1, 8]: 0 ng/m
Subject D, Urine Results [1, 8]: 0 ng/m
Subject A, Urine Results [1, 9]: 28.4 ng/mL
Subject B, Urine Results [1, 9]: 206 ng/mL
Subject C, Urine Results [1, 9]: 75.2 ng/m
Subject D, Urine Results [1, 9]: 110 ng/m
Average of Urine Samples ([1]; Day 3 sample, collected before that day's dose, average of subjects A, B, C, D, Experiment 1, each marker dosed once): 104.9 ng/mL
Subject A, Urine Results [1, 10]: 98.4 ng/mL
Subject B, Urine Results [1, 10]: 26.8 ng/mL
Subject C, Urine Results [1, 10]: 23.7 ng/m
Subject D, Urine Results [1, 10]: 100 ng/m
Average of Urine Samples ([1]; Day 4 sample, collected before that day's dose, average of subjects A, B, C, D, Experiment 1, each marker dosed once): 62.225 ng/mL
Subject A, Urine Results [1, 11]: 31.6 ng/mL
Subject B, Urine Results [1, 11]: 6.94 ng/mL
Subject C, Urine Results [1, 11]: 7.11 ng/m
Subject D, Urine Results [1, 11]: 18.6 ng/m
Average of Urine Samples ([1]; Day 5 sample, collected before that day's dose, average of subjects A, B, C, D, Experiment 1, each marker dosed once): 16.0625 ng/mL
Subject A, Urine Results [1, 12]: 24.1 ng/mL
Subject B, Urine Results [1, 12]: 5.5 ng/mL
Subject C, Urine Results [1, 12]: 5.02 ng/m
Subject D, Urine Results [1, 12]: 6.37 ng/m
Average of Urine Samples ([1]; Day 6 sample, collected before that day's dose, average of subjects A, B, C, D, Experiment 1, each marker dosed once): 10.2475 ng/mL
Subject A, Urine Results [1, 13]: 0.035 ng/mL
Subject B, Urine Results [1, 13]: 2.33 ng/mL
Subject C, Urine Results [1, 13]: 2.41 ng/m
Subject D, Urine Results [1, 13]: 5.8 ng/m
Average of Urine Samples ([1]; Day 7 sample, collected before that day's dose, average of subjects A, B, C, D, Experiment 1, each marker dosed once): 2.644 ng/mL
Subject C, Urine Results [1, 14]: 1.89 ng/m
Subject D, Urine Results [1, 14]: 2.71 ng/m
course of urine levels relative to dosing ([1]; Experiment 1, days 1-8): zero before dosing, peaked the day after dosing and slowly decreased over time
concentration at 1 day ([1]; human, in vivo): 0 ng/mL
concentration at 2 day ([1]; human, in vivo): 0 ng/mL
concentration at 8 day ([1]; human, in vivo, Average of Urine Samples, Day 8 sample, average of subjects A, B, C, D, Experiment 1, each marker dosed once): 1.18 ng/mL
concentration at 8 day ([1]; human, in vivo, Subject A, Urine Results, Day 8 sample, Experiment #1, adherent with all markers, each marker dosed once): 0.022 ng/mL
concentration at 8 day ([1]; human, in vivo, Subject B, Urine Results, Day 8 sample, Experiment #1, adherent with all markers, each marker dosed once): 0.107 ng/mL
Subject B, Urine Results ([5]; Day 1 sample, Experiment #2, subject B skipped diphenhydramine on day 5): 0 ng/mL
Subject C, Urine Results ([5]; Day 1 sample, Experiment #2, subject C skipped Loperamide on day 2): 0 ng/mL
Subject B, Urine Results ([5]; Day 2 sample, Experiment #2, subject B skipped diphenhydramine on day 5): 0 ng/mL
Subject C, Urine Results ([5]; Day 2 sample, Experiment #2, subject C skipped Loperamide on day 2): 0 ng/mL
Subject B, Urine Results ([5]; Day 3 sample, Experiment #2, subject B skipped diphenhydramine on day 5): 209 ng/mL
Subject C, Urine Results ([5]; Day 3 sample, Experiment #2, subject C skipped Loperamide on day 2): 0 ng/mL
Subject B, Urine Results ([5]; Day 4 sample, Experiment #2, subject B skipped diphenhydramine on day 5): 101 ng/mL
Subject C, Urine Results ([5]; Day 4 sample, Experiment #2, subject C skipped Loperamide on day 2): 0 ng/mL
Subject B, Urine Results ([5]; Day 5 sample, Experiment #2, subject B skipped diphenhydramine on day 5): 32.3 ng/mL
Subject C, Urine Results ([5]; Day 5 sample, Experiment #2, subject C skipped Loperamide on day 2): 0 ng/mL
Subject B, Urine Results ([5]; Day 6 sample, Experiment #2, subject B skipped diphenhydramine on day 5): 13.8 ng/mL
Subject C, Urine Results ([5]; Day 6 sample, Experiment #2, subject C skipped Loperamide on day 2): 0 ng/mL
Subject B, Urine Results ([5]; Day 7 sample, Experiment #2, subject B skipped diphenhydramine on day 5): 12.8 ng/mL
Subject C, Urine Results ([5]; Day 7 sample, Experiment #2, subject C skipped Loperamide on day 2): 0 ng/mL
course of urine levels relative to dosing ([5]; Experiment 2, days 1-8): zero before dosing, peaked the day after dosing and slowly decreased over time
concentration at 1 day ([5]; human, in vivo): 0 ng/mL
concentration at 2 day ([5]; human, in vivo): 0 ng/mL
concentration at 8 day ([5]; human, in vivo, Subject B, Experiment #2, subject B skipped diphenhydramine on day 5): 2.92 ng/mL
concentration at 8 day ([5]; human, in vivo, Subject C, Experiment #2, subject C skipped Loperamide on day 2): 0 ng/mL
concentration at 1 day [4]: 0 ng/mL
concentration at 2 day [4]: 0 ng/mL
concentration at 3 day [4]: 0.431 ng/mL
concentration at 4 day [4]: 0.18 ng/mL
concentration at 5 day [4]: 0.257 ng/mL
concentration at 6 day [4]: 0.112 ng/mL
concentration at 7 day [4]: 0.0922 ng/mL
concentration at 8 day [4]: 0.0265 ng/mL
